From patent US20250241985A1, “NANOLIPOSOME COMPOSITIONS AND METHODS OF TREATING STROKE” (United States Government As Represented By The Department …, priority 2020, published 2025)

Columns and labels:
[1] = system: HO-1, NQO1 and SOD1; assay: Gene (qPCR) and protein expression of antioxidant enzymes in endothelial cells; type: cell-based, human; conditions: medin 5 μM, 20 hours
Experimental: (§1) Methods. Recombinant medin was expressed in Lemo 21 (DE3) cells using POPINS-medin (Karamanova N, et al. J Am Heart Assoc 2020; 9:e014810) and confirmed to have >95% purity by SDS-PAGE. GM1L was prepared from phosphatidylcholine, cholesterol and monosialoganglioside (molar ratios 70:25:5) using lipid hydration method (Karamanova N, et al. J Am Heart Assoc 2020; 9:e014810). Primary human brain microvascular ECs (Lonza, passages 4-8) were exposed for 20 hours to 4 different treatments (vehicle control, medin 5 μM, medin 5 μM+GM1L 300 μg/ml or GM1L 300 μg/ml) under two aerobic conditions: physoxia (5% oxygen) or hypoxia (1% oxygen). Cell viability was assessed using calcein-AM fluorescence (based on principle of intact esterases in viable cells that releases fluorescent calcein) using flow cytometry (measurements expressed relative to control ECs exposed to room air). Gene expression of antioxidant enzymes heme-oxygenase 1 (HO1), NADPH quinone dehydrogenase (NQO1) and superoxide dismutase 1 (SOD1) were measured separately by qPCR on ECs.
Nrf2 is a transcription factor that is a master regulator of production of antioxidant enzymes and protective mechanisms against hypoxic/ischemic stress and inflammatory stress.

[2] = system: human brain microvascular endothelial cells (HBMVECs); assay: Viability of human brain microvascular endothelial cells under physoxia/hypoxia, with or without medin (calcein-AM, flow cytometry); type: cell-based; conditions: medin 5 μM, 20 hours; for cell viability under hypoxic condition: hypoxia (1% oxygen)
Experimental: as §1
Cell viability was assessed using calcein-AM fluorescence using flow cytometry. Measurements are expressed relative to control HBMVECs exposed to room air.

[3] = system: stroke injury, preclinical models; conditions: 150 mg/kg of free monosialoganglioside in saline; cited from earlier work

Substance	antioxidant enzyme gene expression versus control [1]	cell viability under hypoxic condition [2]	cell viability under hypoxic condition ([2]; listed as Medin)	cell viability under physoxic condition ([2]; physoxia (5% oxygen))	reduction in infarct volume, prior study [3] [%]
medin: 50-amino acid amyloidogenic peptide; recombinant, expressed in Lemo 21 (DE3) cells (RLDKQGNFNAWVAGSYGNDQWLQVDLGSSKEVTGIITQGARNFGSVQFVA; Medin; UniProt Q08431 268-317, looked up)	did not elicit a change	more so	significant additive adverse effect	reduced viability	
monosialoganglioside					6.8
